ChEMBL document CHEMBL4152385, “Synthesis, Receptor Affinity, and Antiallodynic Activity of Spirocyclic σ Receptor Ligands with Exocyclic Amino Moiety” (J Med Chem, 2018)
Blank lines part the entries; values can stand above or below the compound they belong to. Activity calls are given as the source filed them. The rule behind the calls is not given here.

Experiments:
[1] = target: T1, Sigma intracellular receptor 2 (Rattus norvegicus, UniProt Q5U3Y7); assay: Displacement of [3H]-di-o-tolylguanidine from sigma2 receptor in rat liver membranes incubated for 120 mins by scintillation counting method; type: cell membranes, Membrane
T1 sequence (Q5U3Y7 whole entry): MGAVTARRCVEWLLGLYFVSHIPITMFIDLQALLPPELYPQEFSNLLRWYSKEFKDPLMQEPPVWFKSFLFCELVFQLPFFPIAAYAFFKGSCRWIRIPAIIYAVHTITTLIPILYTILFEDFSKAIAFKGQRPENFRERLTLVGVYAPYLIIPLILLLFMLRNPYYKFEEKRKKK

[2] = target: T2, Sigma non-opioid intracellular receptor 1 (Cavia porcellus, UniProt Q60492); assay: Displacement of [3H]-(+)-pentazocine from sigma1 receptor in guinea pig brain cortex membranes incubated for 120 mins by scintillation counting method; type: cell membranes
T2 sequence (Q60492 whole entry): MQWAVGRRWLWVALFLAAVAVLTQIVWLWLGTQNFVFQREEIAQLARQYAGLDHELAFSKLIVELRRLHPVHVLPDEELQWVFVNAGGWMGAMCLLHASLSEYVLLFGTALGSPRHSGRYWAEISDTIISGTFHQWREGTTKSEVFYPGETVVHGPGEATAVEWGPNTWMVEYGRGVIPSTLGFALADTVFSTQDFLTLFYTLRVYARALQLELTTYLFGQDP

[3] = Selectivity ratio of Ki for sigma2 receptor in rat liver membranes to Ki for sigma1 receptor in guinea pig brain cortex membranes; type: cell membranes
[4] = Stability in pH 2 aqueous HCl solution assessed as parent compound remaining after 24 hrs by HPLC; type: physicochemical; settings: buffer, pH 2, 24 h
[5] = Displacement of [3H]-(+)-MK-801 from NMDA PCP binding site in pig brain cortex membrane incubated for 120 mins by scintillation counting method; type: cell membranes, Sus scrofa
[6] = target: Glutamate receptor ionotropic, NMDA 2B (Homo sapiens, UniProt Q13224); assay: Displacement of [3H]ifenprodil from GluN2B (unknown origin) expressed in mouse L(tk-) cell membranes incubated for 120 mins by scintillation counting method
Sequence of Glutamate receptor ionotropic, NMDA 2B (Q13224 whole entry): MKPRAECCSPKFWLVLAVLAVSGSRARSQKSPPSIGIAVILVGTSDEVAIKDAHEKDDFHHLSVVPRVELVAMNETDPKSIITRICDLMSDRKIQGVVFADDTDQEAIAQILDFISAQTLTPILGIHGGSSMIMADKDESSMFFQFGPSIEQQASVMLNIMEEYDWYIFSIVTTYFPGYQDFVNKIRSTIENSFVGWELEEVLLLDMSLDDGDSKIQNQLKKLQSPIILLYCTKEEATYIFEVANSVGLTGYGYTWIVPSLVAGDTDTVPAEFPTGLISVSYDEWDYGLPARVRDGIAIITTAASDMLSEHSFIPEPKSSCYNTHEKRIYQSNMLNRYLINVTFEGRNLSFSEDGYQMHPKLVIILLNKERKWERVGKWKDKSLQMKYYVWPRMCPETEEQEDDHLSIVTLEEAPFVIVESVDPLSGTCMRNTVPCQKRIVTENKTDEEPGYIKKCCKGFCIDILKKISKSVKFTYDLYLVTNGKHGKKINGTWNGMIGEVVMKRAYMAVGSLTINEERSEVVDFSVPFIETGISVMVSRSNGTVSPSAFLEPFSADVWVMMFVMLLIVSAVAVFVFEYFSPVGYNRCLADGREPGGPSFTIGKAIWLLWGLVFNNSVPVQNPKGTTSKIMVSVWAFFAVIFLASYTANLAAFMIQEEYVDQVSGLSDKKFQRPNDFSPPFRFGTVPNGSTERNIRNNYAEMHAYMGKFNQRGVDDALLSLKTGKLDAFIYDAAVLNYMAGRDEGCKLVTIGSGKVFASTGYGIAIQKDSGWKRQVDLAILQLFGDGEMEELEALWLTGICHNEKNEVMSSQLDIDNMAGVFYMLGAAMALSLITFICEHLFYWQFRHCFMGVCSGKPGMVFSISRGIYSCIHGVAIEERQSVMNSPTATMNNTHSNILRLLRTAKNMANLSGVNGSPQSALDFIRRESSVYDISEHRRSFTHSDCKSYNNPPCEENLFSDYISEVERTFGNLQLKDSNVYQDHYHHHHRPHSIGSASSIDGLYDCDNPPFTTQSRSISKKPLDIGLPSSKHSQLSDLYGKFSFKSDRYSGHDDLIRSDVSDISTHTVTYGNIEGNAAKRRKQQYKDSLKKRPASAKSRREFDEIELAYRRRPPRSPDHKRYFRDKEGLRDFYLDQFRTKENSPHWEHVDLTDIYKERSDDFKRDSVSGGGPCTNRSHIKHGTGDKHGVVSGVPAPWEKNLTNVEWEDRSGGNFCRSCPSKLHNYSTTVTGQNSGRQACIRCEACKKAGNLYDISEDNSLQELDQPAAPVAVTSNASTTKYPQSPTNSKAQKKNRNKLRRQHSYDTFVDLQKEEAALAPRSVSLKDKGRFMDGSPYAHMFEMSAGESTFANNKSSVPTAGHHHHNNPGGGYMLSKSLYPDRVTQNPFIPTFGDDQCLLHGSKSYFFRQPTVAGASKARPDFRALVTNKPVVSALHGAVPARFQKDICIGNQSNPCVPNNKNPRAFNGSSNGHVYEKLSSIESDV

[7] = target: Sodium-dependent serotonin transporter (Homo sapiens) (UniProt P31645); assay: Inhibition of SERT (unknown origin) at 1 uM relative to control
Sequence of Sodium-dependent serotonin transporter (Homo sapiens) (P31645 whole entry, looked up): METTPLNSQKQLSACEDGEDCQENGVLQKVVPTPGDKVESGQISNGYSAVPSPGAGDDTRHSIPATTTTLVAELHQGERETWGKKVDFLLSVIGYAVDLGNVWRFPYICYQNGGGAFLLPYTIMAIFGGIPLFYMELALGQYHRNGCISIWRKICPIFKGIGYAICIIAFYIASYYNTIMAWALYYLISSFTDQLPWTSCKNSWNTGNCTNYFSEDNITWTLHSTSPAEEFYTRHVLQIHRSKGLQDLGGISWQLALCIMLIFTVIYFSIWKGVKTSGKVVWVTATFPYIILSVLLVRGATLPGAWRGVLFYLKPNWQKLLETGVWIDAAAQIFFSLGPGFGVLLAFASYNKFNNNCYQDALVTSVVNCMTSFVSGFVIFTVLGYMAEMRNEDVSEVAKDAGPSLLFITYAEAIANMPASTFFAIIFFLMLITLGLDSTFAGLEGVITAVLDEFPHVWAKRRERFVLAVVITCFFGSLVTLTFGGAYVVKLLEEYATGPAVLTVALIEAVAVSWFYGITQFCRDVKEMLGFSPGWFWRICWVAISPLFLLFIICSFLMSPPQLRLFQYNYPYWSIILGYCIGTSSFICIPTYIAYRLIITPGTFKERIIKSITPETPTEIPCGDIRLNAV

[8] = target: T3, 5-hydroxytryptamine receptor 1A (Homo sapiens) (UniProt P08908); assay: Inhibition of 5-HT1A receptor (unknown origin) at 1 uM relative to control
T3 sequence (whole entry): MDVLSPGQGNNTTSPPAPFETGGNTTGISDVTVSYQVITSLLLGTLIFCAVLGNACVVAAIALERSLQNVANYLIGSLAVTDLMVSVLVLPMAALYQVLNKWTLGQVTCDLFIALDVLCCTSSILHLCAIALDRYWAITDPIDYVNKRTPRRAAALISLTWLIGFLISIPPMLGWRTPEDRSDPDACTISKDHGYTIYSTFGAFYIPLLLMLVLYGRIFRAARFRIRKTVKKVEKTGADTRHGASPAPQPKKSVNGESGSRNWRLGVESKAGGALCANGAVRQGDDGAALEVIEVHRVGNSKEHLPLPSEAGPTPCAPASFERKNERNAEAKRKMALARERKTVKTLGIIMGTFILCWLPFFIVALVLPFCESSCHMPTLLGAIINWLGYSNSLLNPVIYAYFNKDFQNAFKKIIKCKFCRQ

[9] = target: T4, Alpha-1A adrenergic receptor (Homo sapiens) (UniProt P35348); assay: Inhibition of alpha-1A adrenergic receptor (unknown origin) at 1 uM relative to control
T4 sequence (whole entry): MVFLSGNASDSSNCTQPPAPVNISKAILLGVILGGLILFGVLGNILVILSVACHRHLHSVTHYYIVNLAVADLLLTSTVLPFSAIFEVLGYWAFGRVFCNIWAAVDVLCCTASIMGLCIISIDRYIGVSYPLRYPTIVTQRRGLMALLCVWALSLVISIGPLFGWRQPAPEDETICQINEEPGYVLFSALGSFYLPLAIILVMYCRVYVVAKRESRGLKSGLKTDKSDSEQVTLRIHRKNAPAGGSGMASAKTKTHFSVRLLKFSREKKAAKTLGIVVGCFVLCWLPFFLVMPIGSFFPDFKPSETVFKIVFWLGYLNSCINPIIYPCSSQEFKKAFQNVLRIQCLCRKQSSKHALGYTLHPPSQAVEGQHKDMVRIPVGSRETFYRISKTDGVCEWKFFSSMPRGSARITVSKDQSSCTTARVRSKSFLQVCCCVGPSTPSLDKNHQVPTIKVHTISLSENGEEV

[10] = Stability in pH 7.4 phosphate buffer assessed as parent compound remaining after 24 hrs by HPLC; type: physicochemical; settings: pH 7.4, 24 h
[11] = target: 5-hydroxytryptamine receptor 2B (Homo sapiens) (UniProt P41595); assay: Inhibition of 5-HT2B receptor (unknown origin) at 1 uM relative to control
Sequence of 5-hydroxytryptamine receptor 2B (Homo sapiens) (P41595 whole entry): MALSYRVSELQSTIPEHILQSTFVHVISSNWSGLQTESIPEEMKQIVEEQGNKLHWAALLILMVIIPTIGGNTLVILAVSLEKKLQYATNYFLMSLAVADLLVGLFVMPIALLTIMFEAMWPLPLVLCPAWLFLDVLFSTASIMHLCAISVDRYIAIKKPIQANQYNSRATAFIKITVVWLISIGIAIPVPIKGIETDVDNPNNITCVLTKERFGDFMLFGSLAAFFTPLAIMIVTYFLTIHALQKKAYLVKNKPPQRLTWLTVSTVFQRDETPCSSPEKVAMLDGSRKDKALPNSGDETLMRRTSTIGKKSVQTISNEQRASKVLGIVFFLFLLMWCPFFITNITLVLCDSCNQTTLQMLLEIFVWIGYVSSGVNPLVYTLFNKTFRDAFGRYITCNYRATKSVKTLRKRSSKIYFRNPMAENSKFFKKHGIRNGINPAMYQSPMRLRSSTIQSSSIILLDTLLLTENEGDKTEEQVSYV

[12] = target: Histamine H1 receptor (Homo sapiens) (UniProt P35367); assay: Inhibition of histamine H1 receptor (unknown origin) at 1 uM relative to control
Sequence of Histamine H1 receptor (Homo sapiens) (P35367 whole entry): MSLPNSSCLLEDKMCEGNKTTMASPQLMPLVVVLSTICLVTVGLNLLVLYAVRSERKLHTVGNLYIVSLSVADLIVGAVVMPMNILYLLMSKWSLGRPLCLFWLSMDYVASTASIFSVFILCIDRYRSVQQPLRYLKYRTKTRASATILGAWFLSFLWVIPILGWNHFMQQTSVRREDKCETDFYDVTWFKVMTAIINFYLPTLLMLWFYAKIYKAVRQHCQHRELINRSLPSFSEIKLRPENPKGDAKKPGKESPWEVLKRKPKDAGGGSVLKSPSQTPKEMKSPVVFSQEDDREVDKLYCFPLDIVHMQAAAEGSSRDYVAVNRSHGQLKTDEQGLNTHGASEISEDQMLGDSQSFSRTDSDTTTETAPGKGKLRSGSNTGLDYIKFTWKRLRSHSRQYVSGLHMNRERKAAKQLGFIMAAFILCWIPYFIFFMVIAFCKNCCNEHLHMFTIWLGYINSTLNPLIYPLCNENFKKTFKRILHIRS

Mu-type opioid receptor [13] = target: Mu-type opioid receptor (Cavia porcellus, UniProt P97266); assay: Displacement of [3H]DAMGO from MOR in guinea pig brain membranes incubated for 120 mins by scintillation counting method; type: cell membranes, Membrane
Sequence of Mu-type opioid receptor (Cavia porcellus, UniProt P97266) (P97266 whole entry): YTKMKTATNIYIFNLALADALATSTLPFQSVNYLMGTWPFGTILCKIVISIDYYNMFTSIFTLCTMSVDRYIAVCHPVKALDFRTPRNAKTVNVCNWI

[14] = target: Voltage-gated inwardly rectifying potassium channel KCNH2 (Homo sapiens, UniProt Q12809); assay: Inhibition of human ERG expressed in CHO cells by automated patch clamp assay; type: cell-based
[15] = target: Sodium-dependent noradrenaline transporter (Homo sapiens) (UniProt P23975); assay: Inhibition of NET (unknown origin) at 1 uM relative to control
Sequence of Sodium-dependent noradrenaline transporter (Homo sapiens) (P23975 whole entry): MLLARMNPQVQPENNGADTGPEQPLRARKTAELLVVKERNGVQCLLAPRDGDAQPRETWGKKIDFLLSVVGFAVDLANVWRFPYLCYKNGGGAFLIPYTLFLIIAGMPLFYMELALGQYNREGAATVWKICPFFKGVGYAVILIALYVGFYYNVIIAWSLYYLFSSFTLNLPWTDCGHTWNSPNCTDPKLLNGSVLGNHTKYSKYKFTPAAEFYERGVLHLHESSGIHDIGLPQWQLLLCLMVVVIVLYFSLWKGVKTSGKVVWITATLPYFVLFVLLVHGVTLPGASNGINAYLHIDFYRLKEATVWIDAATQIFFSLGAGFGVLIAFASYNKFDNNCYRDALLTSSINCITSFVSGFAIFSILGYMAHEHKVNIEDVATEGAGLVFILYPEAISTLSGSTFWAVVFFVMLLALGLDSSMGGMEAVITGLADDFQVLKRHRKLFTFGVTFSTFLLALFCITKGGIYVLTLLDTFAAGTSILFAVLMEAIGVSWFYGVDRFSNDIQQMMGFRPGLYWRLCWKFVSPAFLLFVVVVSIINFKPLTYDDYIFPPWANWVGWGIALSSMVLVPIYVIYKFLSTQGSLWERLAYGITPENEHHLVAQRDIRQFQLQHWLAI

[16] = target: Sodium-dependent dopamine transporter (Homo sapiens) (UniProt Q01959); assay: Inhibition of DAT (unknown origin) at 1 uM relative to control
Sequence of Sodium-dependent dopamine transporter (Homo sapiens) (Q01959 whole entry): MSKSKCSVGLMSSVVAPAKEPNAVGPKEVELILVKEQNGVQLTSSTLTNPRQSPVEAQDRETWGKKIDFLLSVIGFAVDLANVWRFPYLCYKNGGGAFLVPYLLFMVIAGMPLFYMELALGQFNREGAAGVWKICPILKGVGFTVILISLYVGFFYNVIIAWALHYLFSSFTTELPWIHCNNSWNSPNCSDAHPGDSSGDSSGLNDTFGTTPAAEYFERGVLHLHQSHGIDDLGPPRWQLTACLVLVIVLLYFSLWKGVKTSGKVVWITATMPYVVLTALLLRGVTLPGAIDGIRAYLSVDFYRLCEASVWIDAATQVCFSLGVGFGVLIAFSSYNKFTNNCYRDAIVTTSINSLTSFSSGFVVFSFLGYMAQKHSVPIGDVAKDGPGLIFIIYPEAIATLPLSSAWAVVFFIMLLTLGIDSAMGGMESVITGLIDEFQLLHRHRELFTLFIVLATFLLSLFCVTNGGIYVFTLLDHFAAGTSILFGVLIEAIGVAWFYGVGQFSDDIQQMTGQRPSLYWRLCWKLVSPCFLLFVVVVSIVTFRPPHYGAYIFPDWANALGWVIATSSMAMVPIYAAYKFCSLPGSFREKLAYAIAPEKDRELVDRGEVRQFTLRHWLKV

Mu-type opioid receptor [17] = target: Mu-type opioid receptor (Homo sapiens, UniProt P35372); assay: Agonist activity at human MOR expressed in CHOK1 cells assessed as reduction in forskolin-induced intracellular cAMP increase after 45 mins by HTRF analysis; type: functional, cell-based
Mus musculus [18] = assay: Antiallodynic activity in CD1 mouse model of capsaicin-induced mechanical allodynia assessed as effect on paw withdrawal latency time at 2 to 64 mg/kg, sc administered 30 mins before capsaicin addition and measured at 30 secs intervals; type: functional, organism-based
Mus musculus [19] = assay: Antiallodynic activity in CD1 mouse model of capsaicin-induced mechanical allodynia assessed as effect on paw withdrawal latency time at 8 to 16 mg/kg, sc administered 5 mins after sigma1 receptor agonist PRE-084 dosing followed by capsaicin addition and measured after 30 mins post compound dose; type: functional, organism-based
in vitro = settings: mouse, liver microsomes
Description: Metabolic stability in mouse liver microsomes assessed as compound remaining at 25 uM after 1 hr in presence of NADPH by LC-MS analysis

Mus musculus [20] = assay: Antiallodynic activity in CD1 mouse model of capsaicin-induced mechanical allodynia assessed as effect on paw withdrawal latency time at 32 mg/kg, sc administered 5 mins after sigma1 receptor agonist PRE-084 dosing followed by capsaicin addition and measured after 30 mins post compound dose; type: functional, organism-based
[21] = target: T2, Sigma non-opioid intracellular receptor 1
[22] = target: T1, Sigma intracellular receptor 2; assay: Displacement of [3H]-DTG from sigma2 receptor in rat liver membranes; type: cell membranes, Membrane

SMILES: CCOC(=O)C[C@H]1Cc2ccccc2C2(CCC(N3CCc4cc(OC)c(OC)cc4C3)CC2)O1 (stereo partly specified)
Ki [1]: 343 nM

SMILES: Cc1ccc(CNC2CCC3(CC2)O[C@H](O)Cc2ccccc23)c(C)c1 (stereo partly specified)
Ki [1]: 181 nM
Ki [2]: 349 nM

SMILES: CCOC(=O)C[C@H]1Cc2ccccc2C2(CCC(N3CCN(C4CCCCC4)CC3)CC2)O1 (stereo partly specified)
Stability [4]: Stable
Ki [5]: > 1000 nM
Ki [6]: 54 nM
inhibition [7]: < 50%
inhibition [8]: 68%
Ki [1]: 51 nM
inhibition [9]: 78%
Stability [10]: Stable
inhibition [11]: < 50%
inhibition [12]: 98%
Ki (Mu-type opioid receptor [13]): 458 nM
IC50 [14]: 1750 nM
inhibition [15]: < 50%
inhibition [16]: < 50%

SMILES: OCC[C@@H]1Cc2ccccc2C2(CCC(N3CCN(C4CCCCC4)CC3)CC2)O1 (stereo partly specified)
Ki [1]: 172 nM
Ki [2]: 61 nM

SMILES: FCC[C@@H]1Cc2ccccc2C2(CCC(N3CCN(C4CCCCC4)CC3)CC2)O1 (stereo partly specified)
EC50 (Mu-type opioid receptor [17]): 1760 nM
Ki [5]: > 1000 nM
Ki [6]: 65 nM
inhibition [7]: < 50%
inhibition [8]: 62%
Ki [1]: 45 nM
Activity (Mus musculus [18]): Active
inhibition [9]: < 50%
Activity (Mus musculus [19]): inactive
inhibition [11]: < 50%
inhibition [12]: < 50%
remaining at 1 h, 25 µM (in vitro): 71.8%
inhibition [15]: < 50%
inhibition [16]: < 50%
Activity (Mus musculus [20]): Active

SMILES: Fc1ccc(-n2cc(CCCCN3CCC4(CC3)OCc3ccccc34)c3ccccc32)cc1 [SIRAMESINE]
Ki [2]: 17 nM
Ki [21]: 17 nM

SMILES: COc1cccc2c1CCCC2CCCN1CCN(C2CCCCC2)CC1 (stereo unspecified)
Ki [1]: 0.68 nM
Ki [22]: 0.68 nM

SMILES: COc1cc2c(cc1OC)CN(C1CCC3(CC1)O[C@H](O)Cc1ccccc13)CC2 (stereo partly specified)
Ki [1]: 99 nM
Ki [2]: 583 nM

SMILES: Cc1ccc(CNC2CCC3(CC2)O[C@@H](O)Cc2ccccc23)c(C)c1 (stereo partly specified)
Ki [1]: 66 nM

Other lines, results leading:

Ki [1]: 231 nM
SMILES: CCOC(=O)C[C@@H]1Cc2ccccc2C2(CCC(NCc3ccc(C)cc3C)CC2)O1 (stereo partly specified)

Ki [1]: 62 nM
Ratio Ki [3]: 10
Ki [2]: 6.3 nM
SMILES: CO[C@@H]1Cc2ccccc2C2(CCC(N3CCN(C4CCCCC4)CC3)CC2)O1 (stereo partly specified)

Ki [2]: 538 nM
SMILES: CO[C@@H]1Cc2ccccc2C2(CCC(NCc3ccccc3)CC2)O1 (stereo partly specified)

Ki [1]: 527 nM
Ki [2]: 198 nM
SMILES: FCC[C@H]1Cc2ccccc2C2(CCC(NC3CCc4ccccc4CC3)CC2)O1 (stereo partly specified)

Ki [1]: 49 nM
SMILES: CO[C@@H]1Cc2ccccc2C2(CCC(NC3CCc4ccccc4CC3)CC2)O1 (stereo partly specified)

Ki [1]: 77 nM
Ki [2]: 265 nM
SMILES: CO[C@H]1Cc2ccccc2C2(CCC(NC3CCc4ccccc4CC3)CC2)O1 (stereo partly specified)

Ki [2]: 158 nM
SMILES: CO[C@H]1Cc2ccccc2C2(CCC(NCc3ccccc3)CC2)O1 (stereo partly specified)

Ki [1]: 7.6 nM
Ki [2]: 736 nM
SMILES: CO[C@@H]1Cc2ccccc2C2(CCC(NCc3ccc(C)cc3C)CC2)O1 (stereo partly specified)

Ki [1]: 58 nM
Ki [2]: 639 nM
SMILES: COc1cc2c(cc1OC)CN(C1CCC3(CC1)O[C@H](OC)Cc1ccccc13)CC2 (stereo partly specified)
